For orientation: IC50 means the point on the concentration scale where inhibition reaches its midpoint.

The values below come from US9732119B2, “Immunomodulators” (BRISTOL-MYERS SQUIBB COMPANY, priority 2014, dated 2017).

The experiment has as its target T1, PD-1-Ig binding to PD-L1-TVMV-His (PD-L1-His) (Homo sapiens, UniProt Q9NZQ7).
T1 construct: hPDL1(19-239)-TVMV-His; made in house; host or cells: HEK293T cells
Nature of the experiment: PD-1/PD-L1 Homogenous Time-Resolved Fluorescence (HTRF) binding assay. Particulars: PD-1-Ig (20 nM) / PD-L1-His (10 nM); range classes. The method in brief: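 In dPBS with 0.1% BSA and 0.05% Tween-20, inhibitors were preincubated 15 min with 10 nM PD-L1-His before 20 nM PD-1-Ig was added for another 15 min. Binding read by time-resolved FRET between Eu-cryptate anti-Ig (1 nM) and APC anti-His (20 nM).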
On the technique in general: In TR-FRET formats the signal depends on donor and acceptor labels being close together.

Molecules are shown by their SMILES. Positions of bridges follow the written chain, without caps; N, C: chain ends. Non-standard residues stand in square brackets, D forms with d. Residues, ends and D or L forms follow the SMILES beside them. Trp(1-CH2COOH) = N[C@@H](Cc1cn(CC(=O)O)c2ccccc12)C(=O)O; Phe(4-F) = N[C@@H](Cc1ccc(F)cc1)C(=O)O; Hyp = O=C(O)[C@@H]1C[C@@H](O)CN1; NMeNle = CCCC[C@H](NC)C(=O)O; dOrn = NCCC[C@@H](N)C(=O)O; Pip = O=C(O)[C@@H]1CCCCN1; NMeA = CN[C@@H](C)C(=O)O; Dab = NCC[C@H](N)C(=O)O; Dap = NC[C@H](N)C(=O)O

T1 sequence (Q9NZQ7 with tags, fused parts or gaps): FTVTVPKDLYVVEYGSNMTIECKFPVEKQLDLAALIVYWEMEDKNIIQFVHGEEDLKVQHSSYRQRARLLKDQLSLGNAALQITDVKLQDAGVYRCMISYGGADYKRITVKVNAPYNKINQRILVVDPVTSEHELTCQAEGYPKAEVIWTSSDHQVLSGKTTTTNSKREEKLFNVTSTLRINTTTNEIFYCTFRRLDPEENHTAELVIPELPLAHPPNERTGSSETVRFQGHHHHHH

Compound `CCCC[C@H]1C(=O)N(C)[C@@H](CCCC)C(=O)N[C@@H](CCC(=O)O)C(=O)N[C@H](C(N)=O)CNCC(=O)N[C@@H](Cc2ccc(F)cc2)C(=O)N2CCCC[C@H]2C(=O)N[C@@H](CC(N)=O)C(=O)N2CCC[C@H]2C(=O)N[C@@H](Cc2c[nH]cn2)C(=O)N[C@@H](CC(=O)O)C(=O)N2C[C@H](O)C[C@H]2C(=O)N[C@@H](Cc2c[nH]c3ccccc23)C(=O)N[C@@H](C)C(=O)N[C@@H](Cc2cn(CC(=O)O)c3ccccc23)C(=O)N1C` [Example 9057] showed an IC50 of 1 to 9.9 nM.

The compound `CCCC[C@H]1C(=O)N(C)[C@@H](CCCC)C(=O)N[C@@H](C)C(=O)N[C@H](C(=O)NCC(N)=O)CCCNCC(=O)N[C@@H](Cc2ccc(O)cc2)C(=O)N(C)[C@@H](C)C(=O)N[C@@H](CC(=O)O)C(=O)N2CCC[C@H]2C(=O)N[C@@H](Cc2cnc[nH]2)C(=O)N[C@@H](CCC(N)=O)C(=O)N2C[C@H](O)C[C@H]2C(=O)N[C@@H](Cc2c[nH]c3ccccc23)C(=O)N[C@@H](CO)C(=O)N[C@@H](Cc2cn(CC(=O)O)c3ccccc23)C(=O)N1C` [Example 10016] yielded an IC50 of 1 to 9.9 nM.

In turn, `CCCC[C@H]1C(=O)N(C)[C@@H](CCCC)C(=O)NC(CC(C)C)C(=O)N[C@H](C(=O)NCC(N)=O)CNCC(=O)N[C@@H](Cc2ccc(O)cc2)C(=O)N(C)[C@@H](C)C(=O)N[C@@H](CC(N)=O)C(=O)N2CCC[C@H]2C(=O)N[C@@H](CN)C(=O)N[C@@H](CC(C)C)C(=O)N2C[C@H](O)C[C@H]2C(=O)N[C@@H](Cc2c[nH]c3ccccc23)C(=O)N[C@@H](CCN)C(=O)N[C@@H](Cc2c[nH]c3ccccc23)C(=O)N1C` (stereo partly shown) [Example 1029] had an IC50 of 10 to 99 nM.

Regarding `CCCC[C@H]1C(=O)N(C)[C@@H](CCCC)C(=O)N[C@@H](C)C(=O)N[C@H](C(=O)NCC(N)=O)CNCC(=O)N[C@@H](Cc2ccc(O)cc2)C(=O)N(C)[C@@H](C)C(=O)N[C@@H](CC(=O)O)C(=O)N2CCC[C@H]2C(=O)N[C@@H](Cc2cnc[nH]2)C(=O)N[C@@H](CCC(N)=O)C(=O)N2C[C@H](O)C[C@H]2C(=O)N[C@@H](Cc2c[nH]c3ccccc23)C(=O)N[C@@H](CO)C(=O)N[C@@H](Cc2c[nH]c3ccccc23)C(=O)N1C` [Example 10011], the IC50 lay within 1 to 9.9 nM.

Compound `CCCC[C@H]1C(=O)N(C)[C@@H](CCCC)C(=O)N[C@@H](CC(C)C)C(=O)N[C@H](C)C(=O)NCC(=O)N[C@@H](Cc2ccc(O)cc2)C(=O)N(C)[C@@H](C)C(=O)N[C@@H](CC(N)=O)C(=O)N2CCC[C@H]2C(=O)N[C@@H](CN)C(=O)N[C@@H](CC(C)C)C(=O)N2C[C@H](O)C[C@H]2C(=O)N[C@@H](Cc2c[nH]c3ccccc23)C(=O)N[C@@H](CCN)C(=O)N[C@@H](Cc2c[nH]c3ccccc23)C(=O)N1C` [Example 5007] (cyclo([Dab]W[NMeNle][NMeNle]L[dA]GY[NMeA]NP[Dap]L[Hyp]W)) displayed an IC50 of 1 to 9.9 nM.

`CCCC[C@H]1C(=O)N(C)[C@@H](CCCC)C(=O)N[C@@H](CC(C)C)C(=O)N[C@H](C(N)=O)CNCC(=O)N[C@@H](Cc2ccc(F)cc2)C(=O)N2CCCC[C@H]2C(=O)N[C@@H](CC(N)=O)C(=O)N2CCC[C@H]2C(=O)N[C@@H](CCC(N)=O)C(=O)N[C@@H](CC(C)C)C(=O)N2C[C@H](O)C[C@H]2C(=O)N[C@@H](Cc2c[nH]c3ccccc23)C(=O)N[C@@H](CC(N)=O)C(=O)N[C@@H](Cc2cn(CC(=O)O)c3ccccc23)C(=O)N1C` [Example 9030] registered an IC50 of 10 to 99 nM.

Take `CCCC[C@H]1C(=O)N(C)[C@@H](CCCC)C(=O)N[C@@H](CCC(=O)O)C(=O)N[C@H](C(N)=O)CNCC(=O)N[C@@H](Cc2ccc(O)cc2)C(=O)N2CCCC[C@H]2C(=O)N[C@@H](CC(N)=O)C(=O)N2CCC[C@H]2C(=O)N[C@@H](CCC(N)=O)C(=O)N[C@@H](CCC(N)=O)C(=O)N2C[C@H](O)C[C@H]2C(=O)N[C@@H](Cc2c[nH]c3ccccc23)C(=O)N[C@@H](CC(N)=O)C(=O)N[C@@H](Cc2cn(CC(=O)O)c3ccccc23)C(=O)N1C` [Example 9045]: the IC50 lay within 1 to 9.9 nM.

`CCCC[C@H]1C(=O)N(C)[C@@H](CCCC)C(=O)N[C@@H](C)C(=O)N[C@H](C(=O)NCC(N)=O)CCNCC(=O)N[C@@H](Cc2ccc(O)cc2)C(=O)N(C)[C@@H](C)C(=O)N[C@@H](CC(=O)O)C(=O)N2CCC[C@H]2C(=O)N[C@@H](Cc2cnc[nH]2)C(=O)N[C@@H](CCC(N)=O)C(=O)N2C[C@H](O)C[C@H]2C(=O)N[C@@H](Cc2c[nH]c3ccccc23)C(=O)N[C@@H](CO)C(=O)N[C@@H](Cc2c[nH]c3ccccc23)C(=O)N1C` [Example 10012]: the IC50 was 10 to 99 nM.

For `CCCC[C@H]1C(=O)N(C)[C@@H](CCCC)C(=O)N[C@@H](CCC(=O)O)C(=O)N[C@H](C(N)=O)CNCC(=O)N[C@@H](Cc2ccc(O)cc2)C(=O)N2CCCC[C@H]2C(=O)N[C@@H](CC(N)=O)C(=O)N2CCC[C@H]2C(=O)N[C@@H](CCC(N)=O)C(=O)N[C@@H](CC(C)C)C(=O)N2C[C@H](O)C[C@H]2C(=O)N[C@@H](Cc2c[nH]c3ccccc23)C(=O)N[C@@H](CC(N)=O)C(=O)N[C@@H](Cc2cn(CC(=O)O)c3ccccc23)C(=O)N1C` [Example 9042], the IC50 lay within 1 to 9.9 nM.

As for `CCCC[C@H]1C(=O)N(C)[C@@H](CCCC)C(=O)N[C@@H](CC(C)C)C(=O)NCCC[C@@H](N)C(=O)N[C@@H](Cc2ccc(F)cc2)C(=O)N2CCCC[C@H]2C(=O)N[C@@H](CC(N)=O)C(=O)N2CCC[C@H]2C(=O)N[C@@H](CN)C(=O)N[C@@H](CC(C)C)C(=O)N2C[C@H](O)C[C@H]2C(=O)N[C@@H](Cc2c[nH]c3ccccc23)C(=O)N[C@@H](CCN)C(=O)N[C@@H](Cc2cn(CC(=O)O)c3ccccc23)C(=O)N1C` [Example 10566] (H-[dOrn][Phe(4-F)][Pip]NP[Dap]L[Hyp]W[Dab][Trp(1-CH2COOH)][NMeNle][NMeNle]L; lactam 1-C), the IC50 fell in the range of 1 to 9.9 nM.

`CCCC[C@H]1C(=O)N(C)[C@@H](CCCC)C(=O)N[C@@H](CC(C)C)C(=O)N[C@H](C(N)=O)CNCC(=O)N[C@@H](Cc2ccc(O)cc2)C(=O)N2CCCC[C@H]2C(=O)N[C@@H](CC(N)=O)C(=O)N2CCC[C@H]2C(=O)N[C@@H](CCC(N)=O)C(=O)N[C@@H](CCC(=O)O)C(=O)N2C[C@H](O)C[C@H]2C(=O)N[C@@H](Cc2c[nH]c3ccccc23)C(=O)N[C@@H](CC(N)=O)C(=O)N[C@@H](Cc2cn(CC(=O)O)c3ccccc23)C(=O)N1C` [Example 9028] gave an IC50 of 1 to 9.9 nM.

`CCCC[C@H]1C(=O)N(C)[C@@H](CCCC)C(=O)N[C@@H](CC(C)C)C(=O)N[C@H](C(=O)NCC(N)=O)CNCC(=O)N[C@@H](Cc2ccc(F)cc2)C(=O)N(C)[C@@H](C)C(=O)N[C@@H](CC(N)=O)C(=O)N2CCC[C@H]2C(=O)N[C@@H](CCC(N)=O)C(=O)N[C@@H](CC(C)C)C(=O)N2C[C@H](O)C[C@H]2C(=O)N[C@@H](Cc2c[nH]c3ccccc23)C(=O)N[C@@H](CC(N)=O)C(=O)N[C@@H](Cc2cn(CC(=O)O)c3ccccc23)C(=O)N1C` [Example 9009] displayed an IC50 of 1 to 9.9 nM.

Regarding `CCCC[C@H]1C(=O)N(C)[C@@H](CCCC)C(=O)N[C@@H](CC(C)C)C(=O)N[C@H](C(N)=O)CNCC(=O)N[C@@H](Cc2ccc(O)cc2)C(=O)N2CCCC[C@H]2C(=O)N[C@@H](CC(=O)O)C(=O)N2CCC[C@H]2C(=O)N[C@@H](CCC(N)=O)C(=O)N[C@@H](CCC(=O)O)C(=O)N2C[C@H](O)C[C@H]2C(=O)N[C@@H](Cc2c[nH]c3ccccc23)C(=O)N[C@@H](CC(N)=O)C(=O)N[C@@H](Cc2cn(CC(=O)O)c3ccccc23)C(=O)N1C` [Example 9014], the IC50 is 1 to 9.9 nM.
